This note sets out measurements from patent US8628961B2, “Small molecule antagonists of phosphatidylinositol-3,4,5-triphosphate (PIP3) and uses thereof” (Tufts University, priority 2010, dated 2014).

Series [1] concerns the target T1, Akt PH domain (Homo sapiens (Human), UniProt P31749). Nature of the series: PH domain translocation assay (GFP fusion, plasma membrane). Type of series: cell-based. The settings on record: PDGF stimulation. As for the experimental part:
Cells were transfected with the corresponding GFP-fusion vectors, serum starved overnight, and incubated with 100 μM PITs or PIT-1 is for 2 hr, followed by stimulation with 100 ng/ml PDGF or 250 ng/ml PMA for 5 min. The translocation was analyzed using fluorescent microscope and was quantitated by counting the number of cells with translocated PH domains in five random fields.
To begin characterizing cellular activity of PITs, a PH domain translocation assay was performed, measuring PIP3-induced association of GFP-fused PH domains with the plasma membrane. […] Varnai P et al. (1999) J Biol Chem 274:10983-9. Several PH-domain-containing proteins, which are known to bind PIP3 specifically and efficiently, were examined. […] Oikawa T et al. (2004) Nat Cell Biol 6:420-6.
Target sequence in this assay (P31749 5-108): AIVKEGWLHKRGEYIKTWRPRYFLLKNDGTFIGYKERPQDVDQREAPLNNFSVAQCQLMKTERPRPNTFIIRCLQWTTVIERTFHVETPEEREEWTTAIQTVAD

Series [2] has as its system U87MG cells. Description: Combination with Akt kinase inhibitors in U87MG cells (western blot, ATP assay). Type of series: cell-based, human. As for the experimental part: U87MG cells were treated with 100 μM PIT-1, or 10 μM Akt inhibitor VIII (Calbiochem) or Akt inhibitor (Calbiochem), or 100 μM PIT-1 together with 10 μM Akt inhibitor VIII or Akt inhibitor, for 12 hr and then phosphorylation events were evaluated by western blot.
A general note: Immunoblotting shows a protein as a band on a membrane.

In series [3] the test system is U87MG cells. Nature of the series: cells. The class given is cell-based. The settings on record: for IC50: Homo sapiens, U-87 MG, U87MG cells, 48 hr, ATP assay, read-out: Cell Viability IC50. As for the experimental part:
Based on the critical role of PIP3-dependent […] signaling in the regulation of cell survival, the effect of PIT-1 on the cancer cell viability was tested. Cancer cells were seeded into 96-well plates (white plates for ATP assay; black plates for fluorescent assay; clear plates for MTS assay) at the density of 5-10×10^3 cells per well in 100 μl of the appropriate media. Compounds were added at a series of concentrations and incubated for different times. For the ATP assay, a luminescence-based commercial kit (CellTiter-Glo, Promega, Madison, Wis.) was used. Thirty microliters of cell lysis/ATP detection reagent was added to each well, mixed for 10 min at room temperature, and the luminescence was measured using a Wallac Victor 3 plate reader (Perkin-Elmer, Wellesley, Mass.). For the MTS assay, a CellTiter 96 AQueous Non-Radioactive Cell Proliferation Assay Kit (Promega, Madison, Wis., USA) was used. Twenty microliters of the combined MTS/PMS solution was added into each well, incubated for 4 hr at 37° C., and the absorbance at 490 nm was measured using a Wallac Victor 3 plate reader. For the Sytox cell death assay, measuring loss of plasma membrane integrity, cells were incubated with 1 μM Sytox Green reagent (Molecular Probes, Eugene, Oreg.) for 30 min at 37° C. and the fluorescence intensity was measured using Wallac Victor 3 plate reader with excitation at 485 nm and emission at 545 nm. Next, 5 μl of 20% (v/v) Triton X-100 solution was added to each well and incubated for 1 hr at 37° C., and the signal was measured again. The ratio of values (percentage of dead cells in each well) before and after Triton X-100 treatment was calculated and normalized to the relevant controls not subjected to the cytotoxic stimuli. IC50 values were determined using Origin6 software (MicroCal, LLC, Northampton, Mass.).
To measure induction of cell death by PIT-1 derivatives, U87MG cells were incubated with PITs (1.56-300 μM) for 48 hr. Cell viability was determined using ATP assay.

A further series concerns the target GRP1 PH domain (Homo sapiens, UniProt O43739). Description: FP PIP3/GRP1 PH domain binding assay. The settings on record: 15 nM TMR-conjugated PIP3, 100 nM GRP1 PH domain, 30 min.
Another series addresses PDK1 PH domain (Homo sapiens (Human), UniProt O15530). Nature of the series: FP PIP3/PDK1 PH domain binding assay. The settings on record: 15 nM TMR-conjugated PIP3, 100 nM PDK1 PH domain, 30 min. The text has this: (§1) In order to identify compounds that disrupt the interaction between PIP3 and PH domains, a high-throughput fluorescence polarization (FP)-binding assay was developed using recombinant 1-123 amino acid N-terminal fragment of human Akt1 (also referred to herein simply as Akt), encompassing the PH domain (PH123 protein), and fluorescent […] PIP3 molecule. The amino acid sequence of human Akt1 is publicly available as, for example, GenBank Accession No. NP_001014432.1 (SEQ ID NO:1), and the corresponding DNA sequence is publicly available as, for example, GenBank Accession No. NM_001014432. Briefly, 5 μM recombinant GST fusion proteins containing 1-123 a.a. N-terminal fragment of human Akt1 (PH 123) or 100 nM 441-551 a.a. region of human PDK1 were incubated with 15 nM TMR-labeled PIP3, PIP2, or PIP5 in buffer containing 50 mM Tris-HCl (pH 7.5), 150 mM NaCl, and 5 mM b-ME for 15 min at room temperature in the dark. FP values were determined using Wallac Victor 3 plate reader. For the primary screen, 50,000 diverse small molecules from Harvard Institute of Chemistry and Cell Biology were screened (iccb.med.harvard.edu). Incubations were carried out for 1 hr. For secondary assays, PIT compounds were added at various concentrations (6.25, 12.5, 25, 50, 100, 150 and 200 μM), followed by a 30 min incubation. The inhibition rates were calculated as inhibition rate=[1−(compound-treated group/control group)]×100%, and IC50 value was determined using Origin6 software (MicroCal, LLC, Northampton, Mass.).

Series [4] deals with T1, Akt PH domain. Nature of the series: Fluorescence polarization (FP) PIP3/Akt PH domain binding assay. The settings on record: for IC50: 15 nM TMR-conjugated PIP3, PITs 6.25-200 μM, 30 min.
Description: as §1
Target sequence in this assay (P31749 1-123): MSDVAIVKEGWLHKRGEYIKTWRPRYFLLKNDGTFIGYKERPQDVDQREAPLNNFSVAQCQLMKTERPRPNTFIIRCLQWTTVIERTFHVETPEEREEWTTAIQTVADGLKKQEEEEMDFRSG
For orientation: Fluorescence polarisation rises when a labelled molecule tumbles more slowly, as on binding a larger partner.

Another series has as its system PI3K-PDK1-Akt pathway. Nature of the series: PIP3-regulated phosphorylation events in U87MG cells. Type of series: cell-based, human. As for the experimental part: The effect of PIT-1 on PIP3-mediated signaling was examined in U87MG glioblastoma cells, which show elevated basal levels of PIP3 due to the loss of PTEN. Pore N et al. (2003) Cancer Res 63:236-41.
For series [5], the system named is U87MG cells. Nature of the series: Sensitization of U87MG cells to TRAIL, ATP assay. Type of series: cell-based, human. As for the experimental part: FIG. 10 is a bar graph depicting that PITs, as well as Akt inhibitor VIII, sensitize U87MG cells to killing by TRAIL. U87MG cells were incubated with 50 μM PIT-1, PIT-2, PIT-1i-1 or 10 μM Akt inhibitor VIII in the presence or absence of 10 ng/ml TRAIL for 48 hr, followed by cell viability analysis using ATP assay.
Upregulation of PI3K/Akt signaling is an important mechanism of chemoresistance of cancer cells. Blume-Jensen P et al. (2001) Nature 411:355-65; Osaki M et al. (2004) Apoptosis 9:667-76. […] Puduvalli V K et al. (2005) Apoptosis 10:233-43 TRAIL represents a particularly promising anti-cancer agent due to its intrinsic selectivity towards cancer cells which is associated with the expression of the decoy receptors by many (but not all) normal cells. Abe K et al. (2000) Ann NY Acad Sci 926:52-63. […] Oka N et al. (2005) Cancer Res 65:7546-53.

PDK1 PH domain, sequence (O15530 441-551): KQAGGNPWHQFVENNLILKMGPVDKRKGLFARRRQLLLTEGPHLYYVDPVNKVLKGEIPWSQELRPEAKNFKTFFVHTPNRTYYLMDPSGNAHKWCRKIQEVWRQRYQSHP

`CCN(CC)CCCCN1c2ccccc2Oc2ccc(Cl)cc21` [Akt inhibitor X]: the “plasma membrane translocation of Akt PH domain” value at Akt PH domain [1] is “Neither Akt inhibitor X nor allosteric inhibitor VIII blocked membrane translocation”. Further, in the series on U87MG cells [2], the “combination of Akt inhibitors VIII and X” value is on record as “no additive effect”.

In turn, `Cc1cc(C)cc(C(=O)NC(=S)Nc2c(O)cc(C)c(Cl)c2C)c1` [PIT-3, N-(3-Chloro-6-hydroxy-2,4-dimethylphenylcarbamothioyl)-3,5-dimethylbenzamide] had a melting point of 185 to 186 °C. For the same molecule, in the series with U87MG cells [3], the IC50 is 12.4 ± 0.9 µM. The IC50 on GRP1 PH domain was above 200 µM. At PDK1 PH domain, this molecule had an IC50 of 107 ± 3.9 µM. Further, at Akt PH domain [4], the “Akt potency and selectivity compared to PIT-1” value (from here on “Akt potency and selectivity”) is “improved Akt potency and selectivity compared to PIT-1”; the IC50 came out at 17.5 ± 1.6 µM.

`Cc1cc(C)cc(C(=O)NC(=S)Nc2cc(C(F)(F)F)ccc2O)c1` [PIT-4, N-(2-Hydroxy-5-(trifluoromethyl)phenylcarbamothioyl)-3,5-dimethylbenzamide]: the melting point fell in the range of 208 to 209 °C. Moreover, in the series on U87MG cells [3], the IC50 worked out at 20.7 ± 3.3 µM. The same molecule yielded an IC50 on GRP1 PH domain above 200 µM. The same molecule gave an IC50 at PDK1 PH domain above 200 µM. For the same molecule, at Akt PH domain [4], the “Akt potency and selectivity” value was “improved Akt potency and selectivity compared to PIT-1”; the half-maximal inhibitory concentration (IC50) came out at 22.6 ± 3 µM.

`Cc1cc(C)cc(C(=O)NC(=S)Nc2c(O)cc(C(F)(F)F)cc2C(F)(F)F)c1` [PIT-5, N-(2-Hydroxy-4,6-bis(trifluoromethyl)phenylcarbamothioyl)-3,5-dimethylbenzamide] displayed a melting point of 167 to 168 °C. In the series with U87MG cells [3], the half-inhibitory concentration (IC50) came out at 18.8 ± 1.7 µM. This molecule also registered a 50% inhibitory concentration (IC50) on GRP1 PH domain above 200 µM. At PDK1 PH domain, the concentration for half-maximal inhibition (IC50) is above 200 µM. Further, at Akt PH domain [4], the “Akt potency and selectivity” value is “improved Akt potency and selectivity compared to PIT-1”; the IC50 came to 20.8 ± 2.5 µM.

For `Cc1cc(C)cc(C(=O)NC(=S)Nc2c(O)cc(C)c(Br)c2C)c1` [PIT-6, N-(3-Bromo-6-hydroxy-2,4-dimethylphenylcarbamothioyl)-3,5-dimethylbenzamide], the melting point lay in the range of 164.5 to 166 °C. In addition, the IC50 in the series on U87MG cells [3] amounted to 12.6 ± 2.1 µM. Moreover, the IC50 on GRP1 PH domain was above 200 µM. Moreover, the IC50 on PDK1 PH domain is above 200 µM. On Akt PH domain [4], the “Akt potency and selectivity” value is “improved Akt potency and selectivity compared to PIT-1”; the 50% inhibitory concentration (IC50) is 18.1 ± 3.1 µM.

For `Cc1cc(C)cc(C(=O)NC(=S)Nc2cc(-c3ccccc3)ccc2O)c1` [PIT-7, N-(4-Hydroxybiphenyl-3-ylcarbamothioyl)-3,5-dimethylbenzamide], the “cytotoxicity / reduction of cancer cell viability relative to other PITs” value in the series with U87MG cells [3] is “strongest activity”. Further, the half-inhibitory concentration (IC50) with U87MG cells [3] was 6.6 ± 0.3 µM; on GRP1 PH domain, above 200 µM; at PDK1 PH domain, 52.3 ± 2.3 µM; at Akt PH domain [4], 13.4 ± 2.1 µM. Moreover, in the series with PI3K-PDK1-Akt pathway, the “PI3K-PDK1-Akt signaling in U87MG cells” value is listed as “strongest activity”.

B1: TRAIL: Tumor necrosis factor (TNF)-related apoptosis-inducing ligand, 281 amino acid member of the TNF family of cytokines (protein, UniProt P50591 1-281, looked up)
Tumor necrosis factor ligand …: MAMMEVQGGPSLGQTCVLIVIFTVLLQSLCVAVTYVYFTNELKQMQDKYSKSGIACFLKEDDSYWDPNDEESMNSPCWQVKWQLRQLVRKMILRTSEETISTVQEKQQNISPLVRERGPQRVAAHITGTRGRSNTLSSPNSKNEKALGRKINSWESSRSGHSFLSNLHLRNGELVIHEKGFYYIYSQTYFRFQEEIKENTKNDKQMVQYIYKYTSYPDPILLMKSARNSCWSKDAEYGLYSIYQGGIFELKENDRIFVSVTNEHLIDMDHEASFFGAFLVG
Take B1: the “sensitivity of U87MG cells to TRAIL alone” value with U87MG cells [5] is on record as “entirely resistant”.

The IC50 is the midpoint of a concentration-inhibition curve. Broadly, the melting point is the temperature, or range, at which the solid turns liquid.
